Assay results reported in patent publication US6962920B2, “Pyrimidine derivatives and methods of making and using these derivatives” (Duquesne University of the Holy Ghost, priority 1992, dated 2005).
Where two headings read alike, the source gives them in different places.

How the values were obtained:
[1] = biological target: T1, CCRF-CEM human leukemia cell folylpolyglutamate synthetase (Homo sapiens, UniProt Q05932); assay: Substrate activity for CCRF-CEM folylpolyglutamate synthetase; format: biochemical; conditions: Table 18
T1 construct: substrates for human leukemia cell CCRF-CEM folylpolyglutamate synthetase; endogenous in cells; host or cells: CCRF-CEM human leukemia cells
T1 sequence (Q05932 43-587): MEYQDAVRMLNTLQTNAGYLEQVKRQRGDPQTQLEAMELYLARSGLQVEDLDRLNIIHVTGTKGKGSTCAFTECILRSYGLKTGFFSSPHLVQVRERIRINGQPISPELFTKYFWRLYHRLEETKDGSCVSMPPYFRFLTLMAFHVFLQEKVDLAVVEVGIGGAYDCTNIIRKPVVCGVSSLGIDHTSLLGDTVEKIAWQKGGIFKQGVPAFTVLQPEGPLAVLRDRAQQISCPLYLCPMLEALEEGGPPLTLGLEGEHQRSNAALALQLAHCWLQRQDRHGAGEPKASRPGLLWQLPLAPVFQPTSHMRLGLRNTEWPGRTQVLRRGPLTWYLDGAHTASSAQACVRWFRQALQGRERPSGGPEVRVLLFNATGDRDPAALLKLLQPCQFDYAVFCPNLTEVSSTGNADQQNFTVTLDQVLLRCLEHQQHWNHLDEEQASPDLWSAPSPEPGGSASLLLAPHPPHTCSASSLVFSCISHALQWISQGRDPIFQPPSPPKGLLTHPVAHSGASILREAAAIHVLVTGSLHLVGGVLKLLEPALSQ
Description: (§1) Aminopterin is a classical 2,4-diamino antifolate substrate.
(§2) Compounds 33 and 34 were also evaluated for their substrate activity in CCRF-CEM human leukemia folylpolyglutamate synthetase; the compounds were compared against aminopterin.

[2] = tested on: CCRF-CEM cells; assay: Growth inhibition of CCRF-CEM human leukemia cells, continuous exposure; format: cell-based
[3] = biological target: T2, CCRF-CEM DHFR (Homo sapiens, UniProt P00374); assay: Inhibition of DHFR isolated from human CCRF-CEM leukemic cells; format: biochemical; conditions: Table 17
T2 construct: DHFR isolated from human CCRF-CEM leukemic cells; endogenous in cells; host or cells: CCRF-CEM human leukemic cells

[4] = biological target: human recombinant TS (Homo sapiens, UniProt P04818); assay: Inhibition of human recombinant TS; format: biochemical; conditions: Table 17; read-out: Human REC TS IC50
[5] = tested on: FaDu; assay: Growth inhibition of FaDu human squamous carcinoma cell line; format: cell-based
[6] = tested on: R30dm cells; assay: Growth inhibition of R30dm subline (decreased polyglutamate synthase); format: cell-based; conditions: Homo sapiens
[7] = tested on: R2 cells; assay: Growth inhibition of R2 subline (MTX-transport deficient); format: cell-based; conditions: Homo sapiens
[8] = biological target: E-coli thymidylate synthase (ecTS) (Escherichia coli, UniProt P0A884); assay: Inhibition of E. coli thymidylate synthase; format: biochemical; conditions: b353; read-out: inhibition of TS from E. coli
Description: All of the compounds were tested against human cells, L. casei, E. coli, and S. faecium.

[9] = biological target: L. casei DHFR (Lacticaseibacillus casei, UniProt P00381); assay: Inhibition of Lactobacillus casei DHFR; format: biochemical
[10] = biological target: TS from P. carinii (Pneumocystis carinii, UniProt P13100); assay: Inhibition of P. carinii TS; format: biochemical; conditions: b353
[11] = biological target: L. casei TS (Lacticaseibacillus casei, UniProt P00469); assay: Inhibition of thymidylate synthase (TS), L. casei; format: biochemical, Lactobacillus casei
[12] = tested on: R1 cells; assay: Growth inhibition of R1 subline (increased DHFR); format: cell-based; conditions: Homo sapiens
[13] = tested on: FaDu cells; assay: Protection of FaDu cells from growth inhibition by hypoxanthine, thymidine, leucovorin; format: cell-based, human
Description: Compound 113-161 was also tested for its ability to inhibit the growth of FaDu human squamous cell carcinoma cell lines. Performance was tested against MTX using hypoxanthine (Hx) and Thymidine (TdR).
Protection after 120 hours with di-LV was also determined. All of the tested compounds reversed inhibition with leucovorin.

[14] = tested on: A253; assay: Growth inhibition of A253 human squamous carcinoma cell line; format: cell-based; conditions: Table 19, continuous exposure (0 to 120 hours)
Description: The performance of these compounds was evaluated against MTX.

[15] = biological target: T3, RL DHFR (Rattus norvegicus, UniProt Q920D2); assay: Inhibition of DHFR from rat liver; format: biochemical; conditions: Table 25; read-out: Inhibitor Concentrations (IC50) rlDHFR
T3 construct: Toxoplasmosis gondii (Tg) and rat liver (RL); from tissue; host or cells: rat liver
T3 sequence (Q920D2 1-187): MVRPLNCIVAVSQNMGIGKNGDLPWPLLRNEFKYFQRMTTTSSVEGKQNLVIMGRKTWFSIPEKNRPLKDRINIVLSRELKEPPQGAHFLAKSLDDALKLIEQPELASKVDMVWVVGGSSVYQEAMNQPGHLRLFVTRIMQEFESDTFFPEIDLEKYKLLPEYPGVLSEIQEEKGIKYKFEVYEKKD
Description: (§3) The selectivity ratio is a measure of the selectivity of a compound for Pc DHFR or Tg DHFR and is expressed as the IC50 value of the DHFR from rate liver (RL) divided by the IC50 value of either the Pc DHFR or the Tg DHFR, depending on which organism the compounds are being tested against. For example, the selectivity ratio of a compound is calculated by the following formula: [formula]

[16] = biological target: T4, Tg DHFR (Toxoplasma gondii, UniProt Q07422); assay: biochemical; format: biochemical
T4 sequence (Q07422 1-610): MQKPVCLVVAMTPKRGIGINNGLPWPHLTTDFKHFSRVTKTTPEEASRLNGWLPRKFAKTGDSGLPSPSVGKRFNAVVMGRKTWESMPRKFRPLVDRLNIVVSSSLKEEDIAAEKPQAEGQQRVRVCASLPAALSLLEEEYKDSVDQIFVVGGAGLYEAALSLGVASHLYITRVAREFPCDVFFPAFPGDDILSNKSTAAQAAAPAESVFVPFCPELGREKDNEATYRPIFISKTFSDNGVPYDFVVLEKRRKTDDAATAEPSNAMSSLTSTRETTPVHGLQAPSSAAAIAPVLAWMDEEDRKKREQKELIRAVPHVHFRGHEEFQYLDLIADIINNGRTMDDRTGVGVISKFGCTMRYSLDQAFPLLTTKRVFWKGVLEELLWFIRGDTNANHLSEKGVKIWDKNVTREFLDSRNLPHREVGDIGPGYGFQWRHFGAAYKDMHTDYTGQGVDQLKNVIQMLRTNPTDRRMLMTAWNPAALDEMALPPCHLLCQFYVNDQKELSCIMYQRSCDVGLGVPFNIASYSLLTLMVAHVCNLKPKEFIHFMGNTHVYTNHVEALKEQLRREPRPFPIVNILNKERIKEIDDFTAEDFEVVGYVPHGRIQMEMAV
Description: as §3

[17] = biological target: T5, Pc DHFR (Pneumocystis carinii, UniProt P16184); format: biochemical
T5 sequence (P16184 1-206): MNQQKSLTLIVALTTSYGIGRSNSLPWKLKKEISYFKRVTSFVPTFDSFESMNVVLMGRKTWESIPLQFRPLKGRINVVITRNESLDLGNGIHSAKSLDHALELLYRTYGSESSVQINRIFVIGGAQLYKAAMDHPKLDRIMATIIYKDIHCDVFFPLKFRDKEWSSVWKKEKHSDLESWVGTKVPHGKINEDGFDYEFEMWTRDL
Description: as §3

[18] = biological target: T5, Pc DHFR; assay: biochemical
[19] = substrate: Nc1nc(N)c2c(CCc3ccc(C(=O)N[C@@H](CCC(=O)O)C(=O)O)cc3)coc2n1; assay: Substrate activity for CCRF-CEM folylpolyglutamate synthetase; format: biochemical, human; conditions: other: Table 18; substrate for FPGS
Description: as §1, §2

[20] = substrate: Nc1nc(N)c2nc(CNc3ccc(C(=O)N[C@@H](CCC(=O)O)C(=O)O)cc3)cnc2n1; assay: as above; format: biochemical, human; conditions: substrate for FPGS
Description: as §1, §2

[21] = Table 19, continuous exposure (0 to 120 hours), read-out: Growth inhibition EC50, CCRF-CEM
[22] = Table 15, continuous (120 hours) exposure, read-out: Growth inhibition EC50, FaDu
[23] = read-out: Growth inhibition EC50

human recombinant TS, sequence (P04818 whole entry): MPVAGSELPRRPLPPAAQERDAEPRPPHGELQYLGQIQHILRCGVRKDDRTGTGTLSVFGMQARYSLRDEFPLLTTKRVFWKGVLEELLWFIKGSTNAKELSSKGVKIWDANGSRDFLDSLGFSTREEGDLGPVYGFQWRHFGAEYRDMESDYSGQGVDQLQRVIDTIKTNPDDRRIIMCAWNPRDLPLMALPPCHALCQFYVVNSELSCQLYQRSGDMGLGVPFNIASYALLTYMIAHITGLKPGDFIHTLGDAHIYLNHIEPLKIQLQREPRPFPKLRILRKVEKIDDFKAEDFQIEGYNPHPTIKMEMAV
L. casei DHFR, sequence (P00381 whole entry): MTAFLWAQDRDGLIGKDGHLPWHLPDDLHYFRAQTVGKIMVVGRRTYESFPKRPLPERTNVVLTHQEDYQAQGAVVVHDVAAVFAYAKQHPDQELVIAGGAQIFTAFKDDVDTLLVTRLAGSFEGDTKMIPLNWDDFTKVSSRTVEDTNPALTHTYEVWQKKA
T2 sequence (P00374 whole entry): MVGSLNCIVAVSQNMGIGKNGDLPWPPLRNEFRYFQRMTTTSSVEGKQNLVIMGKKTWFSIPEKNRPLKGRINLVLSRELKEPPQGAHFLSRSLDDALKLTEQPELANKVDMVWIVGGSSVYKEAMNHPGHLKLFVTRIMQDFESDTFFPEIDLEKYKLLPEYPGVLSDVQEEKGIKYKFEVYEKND
L. casei TS, sequence (P00469 whole entry): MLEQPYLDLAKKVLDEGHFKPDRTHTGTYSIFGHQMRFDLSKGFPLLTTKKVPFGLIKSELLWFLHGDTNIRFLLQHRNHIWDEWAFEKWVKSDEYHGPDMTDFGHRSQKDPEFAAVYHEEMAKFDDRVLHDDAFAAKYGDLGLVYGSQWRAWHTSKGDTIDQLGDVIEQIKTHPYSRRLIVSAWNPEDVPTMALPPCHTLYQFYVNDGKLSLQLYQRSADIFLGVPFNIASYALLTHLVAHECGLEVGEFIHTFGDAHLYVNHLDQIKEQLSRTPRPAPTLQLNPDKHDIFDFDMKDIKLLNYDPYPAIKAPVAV
TS from P. carinii, sequence (P13100 whole entry): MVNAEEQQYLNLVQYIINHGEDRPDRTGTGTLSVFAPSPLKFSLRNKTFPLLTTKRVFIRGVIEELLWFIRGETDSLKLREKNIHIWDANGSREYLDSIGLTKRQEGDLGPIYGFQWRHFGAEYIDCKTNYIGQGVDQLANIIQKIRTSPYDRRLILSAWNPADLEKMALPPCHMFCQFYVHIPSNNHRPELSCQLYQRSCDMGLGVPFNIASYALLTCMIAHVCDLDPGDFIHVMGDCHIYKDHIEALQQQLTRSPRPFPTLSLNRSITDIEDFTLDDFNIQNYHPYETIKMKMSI
E-coli thymidylate synthase (ecTS), sequence (P0A884 whole entry): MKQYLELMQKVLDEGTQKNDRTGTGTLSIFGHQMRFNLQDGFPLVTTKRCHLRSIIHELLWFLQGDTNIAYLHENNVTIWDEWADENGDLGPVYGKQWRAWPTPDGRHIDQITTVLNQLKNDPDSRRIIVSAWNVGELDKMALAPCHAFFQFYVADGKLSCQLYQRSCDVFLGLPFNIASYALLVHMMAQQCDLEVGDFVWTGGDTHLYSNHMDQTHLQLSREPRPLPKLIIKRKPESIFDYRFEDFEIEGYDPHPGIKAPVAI

Nc1nc(N)c2c(CNCc3ccc(C(=O)N[C@@H](CCC(=O)O)C(=O)O)cc3)coc2n1 [Compound 34]
Vmax(rel) [1]: 0.6
EC50 [2, 21]: 48 µM
IC50 [3]: 30.5 µM
IC50 [4]: 63 µM

CN(Cc1ccc(S(=O)(=O)N2CCOCC2)cc1)c1ccc2c3c(cccc13)C(=N)N2 [AG331]
EC50 [5, 22]: 1 ± 0.1 µM

Nc1nc2[nH]cc(CNc3ccc(C(=O)N[C@@H](CCC(=O)O)C(=O)O)cc3)c2c(=O)[nH]1 [Compound 407]
EC50 ([6]; Table 23, continuous exposure, read-out: Growth inhibition EC50, R30dm (decreased FPGS)): 0.12 ± 0.01 µM
EC50 ([7]; Table 23, continuous exposure, read-out: Growth inhibition EC50, R2 (↓ transport)): 0.31 ± 0.03 µM
IC50 [8]: > 12 µM
IC50 [9]: 6.9 µM
IC50 [10]: 5.8 µM
IC50 [11]: 46 µM
EC50 ([12]; Table 23, continuous exposure, read-out: Growth inhibition EC50, R1 (↑ DHFR)): 0.2 ± 0.02 µM
EC50 ([2]; Table 23, continuous exposure, read-out: Growth inhibition EC50, CEM (sensitive)): 0.079 µM

Cc1nc(N)nc2[nH]cc(CCc3ccc(C(=O)N[C@@H](CCC(=O)O)C(=O)O)cc3)c12 [Compound 113-161]
protection study with hypoxanthine (Hx) and thymidine (TdR) [13]: almost completely reversed the TS inhibition

C#CCN(Cc1ccc2nc(N)[nH]c(=O)c2c1)c1ccc(C(=O)N[C@@H](CCC(=O)O)C(=O)O)cc1 [PDDF]
EC50 [5, 22]: 1.7 ± 0.2 µM

Nc1nc(N)c2c(CCc3ccc(C(=O)N[C@@H](CCC(=O)O)C(=O)O)cc3)coc2n1 [Compound 33, N-[4-[2-(2,4-diaminofuro[2,3-d]pyrimidin-5-yl)ethyl]-benzoyl]-L-glutamic acid]
EC50 ([6]; Table 19, continuous exposure (0 to 120 hours), read-out: Growth inhibition EC50, R30DM): 4.25 µM
IC50 ([9]; Table 17, read-out: L. casei DHFR IC50): 0.1 µM
Vmax(rel) [1]: 0.65 ± 0.01
EC50 [14]: 0.54 ± 0.09 µM
EC50 [2, 21]: 0.29 µM
IC50 [3]: 0.25 µM
EC50 ([5]; Homo sapiens, FaDu, Table 19, continuous exposure (0 to 120 hours), read-out: Growth inhibition EC50, FaDu): 0.018 ± 0.02 µM
IC50 [4]: 220 µM

CN(Cc1cnc2nc(N)nc(N)c2n1)c1ccc(C(=O)N[C@@H](CCC(=O)O)C(=O)O)cc1 [MTX, methotrexate, reference compound]
EC50 [7, 23]: 1.6 ± 0.1 µM
EC50 ([7]; read-out: Growth inhibition EC50, R2): 3.1 ± 0.1 µM
EC50 ([7]; read-out: Growth inhibition EC50, R2 (↓ transport)): 2.35 ± 0.55 µM
EC50 [12, 23]: 0.675 ± 0.035 µM
EC50 ([12]; read-out: Growth inhibition EC50, R1): 0.595 ± 0.005 µM
EC50 ([12]; read-out: Growth inhibition EC50, R1 (↑ DHFR)): 6.445 ± 0.055 µM
EC50 ([5]; Homo sapiens, FaDu, 120 h, read-out: Growth inhibition EC50, FaDu): 0.031 ± 0.002 µM
EC50 ([5]; Homo sapiens, FaDu, read-out: Growth inhibition EC50): 0.0113 ± 0.0018 µM
EC50 ([5]; Homo sapiens, FaDu, read-out: Growth inhibition EC50, FaDu): 0.017 ± 0.002 µM

Nc1nc(N)c2c(COc3ccc4ccccc4c3)coc2n1 [Compound 164, 2,4-Diamino-5-[(2-naphthoxy)methyl]furo[2,3-d]pyrimidine]
IC50 [15]: 60.3 µM
IC50 ([16]; Table 16, read-out: Tg DHFR IC50): > 42 µM
IC50 ([16]; Table 25, read-out: Inhibitor Concentrations (IC50) tgDHFR): > 42 µM
Selectivity ratio rl/pc ([17]; IC50 rlDHFR/IC50 pcDHFR): 4.31
Selectivity Ratio RL/Pc ([17]; Table 16): 4.31
IC50 ([18]; Table 16, read-out: Pc DHFR IC50): 14 µM
IC50 ([18]; Table 25, read-out: Inhibitor Concentrations (IC50) pcDHFR): 14 µM

B1: CCRF-CEM human leukemia cell folylpolyglutamate synthetase (Homo sapiens) (protein)
chain: MEYQDAVRMLNTLQTNAGYLEQVKRQRGDPQTQLEAMELYLARSGLQVEDLDRLNIIHVTGTKGKGSTCAFTECILRSYGLKTGFFSSPHLVQVRERIRINGQPISPELFTKYFWRLYHRLEETKDGSCVSMPPYFRFLTLMAFHVFLQEKVDLAVVEVGIGGAYDCTNIIRKPVVCGVSSLGIDHTSLLGDTVEKIAWQKGGIFKQGVPAFTVLQPEGPLAVLRDRAQQISCPLYLCPMLEALEEGGPPLTLGLEGEHQRSNAALALQLAHCWLQRQDRHGAGEPKASRPGLLWQLPLAPVFQPTSHMRLGLRNTEWPGRTQVLRRGPLTWYLDGAHTASSAQACVRWFRQALQGRERPSGGPEVRVLLFNATGDRDPAALLKLLQPCQFDYAVFCPNLTEVSSTGNADQQNFTVTLDQVLLRCLEHQQHWNHLDEEQASPDLWSAPSPEPGGSASLLLAPHPPHTCSASSLVFSCISHALQWISQGRDPIFQPPSPPKGLLTHPVAHSGASILREAAAIHVLVTGSLHLVGGVLKLLEPALSQ
notes: substrates for human leukemia cell CCRF-CEM folylpolyglutamate synthetase; endogenous in cells; host or cells: CCRF-CEM human leukemia cells
Km [19]: 8.5 ± 2.1 µM
Km ([20]; other: Table 10): 4.3 ± 0.2 µM
Km ([20]; other: Table 18): 4.8 ± 0.7 µM
